Laboratory results reported in the NIST ThermoML archive (doi:10.1016/j.jct.2012.05.007).
Numbers after ± are expanded uncertainties.

Conditions: Liquid, Falling or rolling sphere viscometry

CCCC[N+]1(C)CCCC1.O=S(=O)([N-]S(=O)(=O)C(F)(F)F)C(F)(F)F
viscosity [mPa·s]
Conditions	10000 kPa	15000 kPa	25000 kPa	50000 kPa	75000 kPa	100000 kPa	125000 kPa	150000 kPa
313.15 K	46.5 ± 4.8	49.5 ± 5.1	55.9 ± 5.7	74.8 ± 7.7	98.8 ± 10	129.4 ± 14	168.4 ± 18	218 ± 24
343.15 K	18.2 ± 2	19.1 ± 2.1	21.1 ± 2.3	26.6 ± 2.9	33.6 ± 3.7	42.1 ± 4.7	52.8 ± 6	66.3 ± 7.6
363.15 K	12.2 ± 1.3	12.8 ± 1.3	14.1 ± 1.5	17.7 ± 1.8	21.9 ± 2.3	26.7 ± 2.8	32.2 ± 3.4	38.7 ± 4.1

CCOS(=O)(=O)[O-].CCn1cc[n+](C)c1 [1-ethyl-3-methylimidazolium ethyl sulfate]
viscosity [mPa·s]
Conditions	10000 kPa	15000 kPa	25000 kPa	50000 kPa	75000 kPa	100000 kPa	125000 kPa	150000 kPa
313.15 K	54.3 ± 5.6	56.4 ± 5.8	60.9 ± 6.3	73.6 ± 7.6	88.6 ± 9.2	106.6 ± 11	128.1 ± 14	153.8 ± 17
343.15 K	20.2 ± 2.2	20.9 ± 2.3	22.3 ± 2.4	26.1 ± 2.9	30.3 ± 3.4	35 ± 3.9	40.2 ± 4.6	46.1 ± 5.3
363.15 K	13.2 ± 1.4	13.6 ± 1.4	14.5 ± 1.5	16.8 ± 1.8	19.2 ± 2	22 ± 2.3	25 ± 2.6	28.2 ± 3

COCC[N+]1(C)CCCC1.O=S(=O)([N-]S(=O)(=O)C(F)(F)F)C(F)(F)F
viscosity [mPa·s]
Conditions	10000 kPa	15000 kPa	25000 kPa	50000 kPa	75000 kPa	100000 kPa	125000 kPa	150000 kPa
313.15 K	33.3 ± 3.4	35.3 ± 3.6	39.5 ± 4	52 ± 5.3	67.5 ± 6.9	86.9 ± 9	111.2 ± 12	141.5 ± 15
343.15 K	14.8 ± 1.6	15.5 ± 1.6	17 ± 1.8	21.2 ± 2.3	26.2 ± 2.8	32.3 ± 3.5	39.6 ± 4.4	48.5 ± 5.4
363.15 K	10.2 ± 1.1	10.7 ± 1.1	11.6 ± 1.2	14.3 ± 1.5	17.5 ± 1.8	21.2 ± 2.2	25.5 ± 2.7	30.5 ± 3.2
